Data from patent US9062093B2, “Peptide compositions and methods for treating patients” (THE REGENTS OF THE UNIVERSITY OF MICHIGAN, priority 2011, dated 2015).

Tested on: C57BL/6J mice
Assay: Blood glucose after oral load of glucose together with amino acid or peptide
Type: in vivo
Details: for Blood glucose levels in mice loaded with glucose: non-diabetic mice, glucose 2 mg/g bw and peptide 1 mg/g bw orally
Protocol: An experiment was performed in adult male C57BL/6J mice purchased from Jackson Lab (Bar Harbor, Me.). Fasted mice were given glucose (2 mg/g body weight, diamond line in FIG. 1, n=10) or glycine (0.35 mg/g bw, square line in FIG. 1, n=10) and glucose by gavaging. Blood glucose was measured at 0, 30, 60, 90, and 120 min after giving glucose.
An experiment was performed in adult male C57BL/6J mice purchased from Jackson Lab. In the control group (diamond line in FIG. 13, n=10), glucose was orally administered at dose of 2 mg/g bw. In the Diapin and LLG group (square line or triangle line, n=9), glucose and Diapin or glucose and LLG were orally administered at dose of 2 mg/g bw and 1 mg/g bw, respectively. Blood glucose was measured at 0, 30, 60, 90 and 120 min after gavaging glucose and Diapin.
An experiment was performed in adult male C57BL/6J mice purchased from Jackson Lab. In the control group (diamond line in FIG. 14, n=10), glucose was orally administered at dose of 2 mg/g bw. […] Blood glucose was measured at 0, 30, 60, 90 and 120 min after gavaging glucose and GLG or GLL.
An experiment was performed in adult male C57BL/6J mice purchased from Jackson Lab. […] Blood glucose was measured at 0, 0.5, 1, 1.5 and 2 hours after gavaging glucose, Diapin and amidated Diapin.
An experiment was performed in adult male C57BL/6J mice purchased from Jackson Lab. […] Blood glucose was measured at 0, 0.5, 1, 1.5 and 2 hours after gavaging glucose, Diapin, and acetylated Diapin.
An experiment was performed in adult male C57BL/6J mice purchased from Jackson Lab. […] Blood glucose was measured at 0, 0.5, 1, 1.5 and 2 hours after gavaging glucose, Diapin and amidated/acetylated Diapin.
(§1) An experiment was performed in adult male C57BL/6J mice purchased from Jackson Lab. […] Blood glucose was measured at 30, 60, 90 and 120 min after giving glucose. […]
as §1

Compound	Blood glucose levels in mice loaded with glucose	Blood glucose levels compared to the control group (glycine 0.35 mg/g bw and glucose 2 mg/g bw by gavage, fasted mice, any time point (0, 30, 60, 90, 120 min))
Glycine-Leucine-Leucine [GLL]	significantly reduce blood glucose levels	–
NCC(=O)O [glycine, reference compound]	–	not significantly changed
Leucine-Leucine-Glycine [LLG]	significantly reduce blood glucose levels	–
